Assays:
[1] = tested on: luciferase-labeled, triple-negative MDA-MB-231 cells; test: Orthotopic mammary fat pad xenograft, bioluminescent tumor burden; format: in vivo, mouse; settings: day 28; LBH589 2.5 mg/kg, rosiglitazone 10 mg/kg or both, i.p. five days per week for four weeks; control 9.9 ± 6.2
Description: Female NCr nude mice (CrTac:NCr-Foxn1nu) aged 7 weeks were purchased from InVivos, Singapore. […] Mice were acclimatized to laboratory conditions for a minimum of 3 days prior to study initiation. All surgical procedures were performed under strict aseptic conditions according to the protocol approved by the SingHealth Institutional Animal Care and Use Committee (IACUC). […] A 1-cm incision was made at the abdominal mammary fat pad area. […] The incision was closed with wound clips (Stoelting Co, USA). To relieve post-surgical pain and prevent dehydration following surgery, 1 ml of 2 mg/ml meloxicam (Troy Ilium, Australia), diluted in 0.9% saline (B. Braun, Germany) was administered subcutaneously at the right flank of mice after surgery. Mice were recovered on a heating pad until fully awake from anesthesia before being returned to cages. Tumor growth was screened by imaging from the ventral view using the Xenogen IVIS system (Caliper Life Sciences, CA, USA). […] Bioluminescent signals around the tumor sites were identified and quantified as total photon counts using Living Image 4.2 software (Xenogen). […] The bodyweight of mice was measured prior to drug administration. Tumor growth was monitored twice a week using the Xenogen IVIS system throughout the entire 28 days of treatment. […]

[2] = tested on: MDA-MB-231 CAM tumor; test: Chick chorioallantoic membrane (CAM) tumor vascularization, ultrasound imaging; format: in vivo; settings: single treatments, 48 h
Description: On Embryonic Day 3, a sharp weighted tool was used to poke a hole at the apex of the eggshell, and 3 mL of albumin was removed using a 5 ml syringe and 18G needle in order to drop the chick chorioallantoic membrane (CAM). The sharp-weighted tool was then used to poke a hole in the middle of the egg before using curved scissors to cut a 1cm2 hole. The eggs were screened, and dead embryos were removed.
On Embryonic Day 7, MDA-MB-231 cells were prepared for inoculation onto the CAM. DMEM was aspirated, cells were washed with PBS before the addition of 1 ml of 2.5 g/l Trypsin/EDTA solution onto the culture dish. The cells were then removed into a 15 ml Falcon tube and centrifuged for 3 min at 1200 rpm, before the supernatant was removed. Matrigel was added to the cell pellet on ice to resuspend the pellet, before the addition of 2 × 10^6 cells in a 50 µl of Matrigel-cell mixture onto CAM. […]
On Embryonic Day 10, the Tegaderm membrane was removed and Aquasonic gel was added onto the cling wrap which was carefully placed over the CAM. […] Tumor volumes and percentage vasculature were calculated by the Vevo Lab 1.7.0 programme.
Twenty microliters of single or combination treatments of LBH589 and rosiglitazone were added onto a 3.5 mm diameter autoclaved filter paper placed next to the formed tumor on the CAM. […] Percentage changes were calculated based on before and after drug treatment.

[3] = Cellular IC50 of LBH589; format: cell-based
[4] = tested on: PPARγ; test: Immunoprecipitation of FLAG-tagged PPARγ, acetyl-lysine immunoblot; format: cell-based, human; settings: MCF7 cells, 50 nM LBH589, first hour; overall FLAG-tagged PPARγ unchanged
Description: For detection of acetylation of PPARγ, immunoprecipitation with PPARγ was performed. Cells were seeded at […] density and transfected with FLAG-tagged PPARγ before treatment with LBH589. Cells were harvested and cell pellets were lysed in immunoprecipitation (IP) lysis buffer (pH 8). Two hundred and fifty micrograms of proteins were pre-cleared with magnetic G beads (Millipore, Bedford, MA) for 1 h before rotating with 1 μg of FLAG antibody or normal rabbit IgG overnight at 4 °C. Magnetic G beads were added to the mixture the next day and rotated for 1.5 h. Magnetic-enriched IP samples were washed four times in cold wash buffer (200 mM Tris [pH 8.0], 100 mM NaCl, 0.5% NP-40, 2 mM DTT, 0.5 mM PMSF, 1 mM sodium orthovanadate, 1 μg/ml leupeptin, and 1 μg/ml aprotinin) at 10 min intervals. Samples were then boiled in 5× SDS loading buffer and subjected to SDS-PAGE. Proteins were then transferred to PVDF membranes and detected for acetyl-lysine.

[5] = tested on: PPARγ; test: PPARγ mRNA and protein expression (RT-PCR, western blot); format: cell-based, human; settings: MCF7 and MDA-MB-231, 50 nM LBH589, from the 3 h mark to 18 h
Description: Total RNA was isolated from cells using TRIZOL reagent (Invitrogen, Carlsbad, CA, USA), as described in the manufacturer’s instructions with a DNAse treatment step incorporated into the protocol. Each RT reaction contained 2.5 µg of total RNA, 1× RT buffer, 5 mM MgCl2, 425 µM each of dNTPs, 2 µM random hexamers, 0.35U/µl RNase inhibitor, and 1.1U/µl MultiScribe™ reverse transcriptase and made up to 10 µl with sterile water. The RT reaction was carried out at 37 °C for 1 h. Five microlitres of the 10 µl cDNA reaction volume were used in real-time quantitative PCR using ABI PRISM 7500 (Applied Biosystems, Foster City, CA, USA). Normalization was endogenous 18S. Fluorescence was measured with the Sequence Detection Systems 2.0 software. PCR was performed in multiplex (both target and endogenous control co-amplified in the same reaction) with distinct fluorescent dyes. Primers and probes for human 18S, human PPARγ, BIRC5, CyclinD1, VEGFA, and MnSOD were purchased from Applied Biosystems (Assays on Demand).

[6] = tested on: PPARγ; test: PPRE-luciferase reporter assay (PPARγ activity); format: cell-based, human; settings: MCF7, T47D, MDA-MB-231 and BT549 cells; 0, 50, 100 nM LBH589, 16 h
Source text: We took advantage of the fact that downstream genes targeted by this transcription factor contain peroxisome proliferator response elements (PPRE), where it binds. […] To provide assurance that the enhanced bioluminescence is attributable to PPARγ receptor activation rather than some off-target consequence of pan-HDAC inhibition, we repeated the luciferase assays but modified the experiments to eliminate the contribution of PPARγ (Supplementary Results: Part S2).

[7] = tested on: untransformed human breast epithelial cell lines MCF10A and MCF12A; test: PPARγ expression, activity and cell viability in normal breast epithelial cells; settings: 0, 50, 100 nM LBH589, 24 h
Description: Whole-cell lysates were prepared with RIPA lysis buffer containing 10 mM Tris-HCL pH7.4, 30 mM NaCl, 1 mM EDTA, 1% Nonidet P-40, supplemented with 1 mM sodium orthovanadate (Na3VO4), 1 µg/ml leupeptin, 1 µg/ml pepstatin A, 1 µg/ml aprotinin, and 1 mM PMSF before use. […] Thereafter, proteins were transferred onto nitrocellulose membranes, blocked for 1 h at room temperature with 5% non-fat milk, and incubated overnight at 4 °C with the primary antibody. After probing with a secondary antibody for 1 h at 25 °C, protein bands were detected by using the Supersignal West Pico Chemiluminescent substrate kit. β-actin antibody was used as a loading control.
The luciferase reporter construct used was pPPRE-tk-Luc, which contains three PPREs from the rat acyl-CoA oxidase promoter under the control of the Herpes simplex virus thymidine kinase promoter (kind gift from Dr. Ronald M. Evans, The Salk Institute for Biological Studies, San Diego, CA, USA). 3× PPRE promoter activities were assessed with a dual-luciferase assay kit. […] Ten microlitres of cell lysate were then added to 50 μl of the luciferase substrate solution, following which 50 μl of stop and glow buffer was added for Renilla reading. Bioluminescence generated was measured using a Sirius luminometer (Berthold, Munich, Germany). The luminescence readings obtained were normalized to the protein content of the corresponding cell lysate. […]

[8] = tested on: ERα; test: ERα receptor expression (western blot); format: cell-based, human; settings: ER-positive cell lines MCF7 and T47D
[9] = mouse, in vivo, ip, 7.5 mg/kg
Description: (§1) A total of 39 mice were randomly assigned to 5 treatment groups with at least 7 animals in each group. Mice were treated with vehicle (10% DMSO), 2.5 mg/kg or 7.5 mg/kg of LBH589, 10 mg/kg, or 20 mg/kg of Rosiglitazone via i.p. injection five days per week. The animals were evaluated for changes in clinical signs (stooling, activity level, and body weight). Bodyweight was measured prior to dosing and mice were monitored regularly for any signs of distress after drug administration. All mice were humanely euthanized after 24 days.

[10] = Toxicity study in NCr nude mice; settings: LBH589 2.5 or 7.5 mg/kg, rosiglitazone 10 or 20 mg/kg, i.p. five days per week, three-week cycle
Description: as §1

| SMILES | relative tumor burden (fold change in bioluminescent signal normalized to pre-treatment radiance levels) [1] | CAM tumor volume / tumor size compared to DMSO control [2] | changes in CAM vascular volumes compared to DMSO [2] | IC50 [3] | acetylated PPARγ [4] | intracellular PPARγ mRNA and protein [5] | PPRE-luciferase reporter activity [6] | PPARγ expression and activity [7] | ERα receptor expression [8] | clinical signs (weight gain, stooling) compared to lower dosage or placebo [9] | loss of original bodyweight [10] |
| --- | --- | --- | --- | --- | --- | --- | --- | --- | --- | --- | --- |
| Cc1[nH]c2ccccc2c1CCNCc1ccc(/C=C/C(=O)NO)cc1 [LBH589] | 5.8 ± 3.7 fold | did not have any significant effects | No significant changes | 50 nM | marked initial accumulation | steady and gradual rise | dose-dependently enhanced | did not upregulate PPARγ expression or augment its activity | dose-dependently suppressed | less weight gain and softer stools |  |
| CN(CCOc1ccc(CC2SC(=O)NC2=O)cc1)c1ccccn1 (stereo not drawn) [rosiglitazone] | 5.3 ± 0.8 fold |  |  |  |  |  |  |  |  |  | ≤ 10% |
